Experimental data published in ChEMBL document CHEMBL1158657, “Improved antitumor activity by modification of nogalamycin” (1979).
Activity calls are given as the source filed them. No cut-off for these calls is given here.

What was measured:
[1] = test system: P388; assay: Antitumor activity against mouse P388 cells xenografted in mouse assessed as increase in life span at 10 mg/kg/day, ip after 9 days; type: functional; conditions: route intraperitoneal
[2] = test system: L1210; assay: Cytotoxicity against mouse L1210 cells; type: functional; conditions: for IC50: Mus musculus
[3] = test system: P388; assay: Antitumor activity against mouse P388 cells xenografted in mouse assessed as increase in life span at 100 mg/kg/day, ip after 9 days; type: functional; conditions: route intraperitoneal
[4] = test system: P388; assay: Antitumor activity against mouse P388 cells xenografted in mouse assessed as increase in life span at 12.5 mg/kg/day, ip after 9 days; type: functional; conditions: route intraperitoneal
[5] = test system: P388; assay: Antitumor activity against mouse P388 cells xenografted in mouse assessed as increase in life span at 4 mg/kg/day, ip after 9 days; type: functional; conditions: route intraperitoneal
[6] = test system: L1210; assay: Inhibition of DNA synthesis in mouse L1210 cells; type: functional; conditions: read-out: ID50 (the source's name)
[7] = test system: B16; assay: Antitumor activity against mouse B16 cells xenografted in mouse assessed as increase in life span at 0.5 to 1 mg/kg/day, ip after 9 days; type: functional; conditions: route intraperitoneal
[8] = test system: L1210; assay: Inhibition of protein synthesis in mouse L1210 cells; type: functional, cell-based
[9] = test system: P388; assay: Antitumor activity against mouse P388 cells xenografted in mouse assessed as increase in life span at 1 mg/kg/day, ip after 9 days; type: functional; conditions: route intraperitoneal
[10] = test system: L1210; assay: Antitumor activity against mouse L1210 cells xenografted in mouse assessed as increase in life span at 1 mg/kg/day, ip after 9 days; type: functional; conditions: route intraperitoneal
[11] = test system: L1210; assay: Inhibition of RNA synthesis in mouse L1210 cells at 10 nmole/ml; type: functional
[12] = test system: L1210; assay: Inhibition of RNA synthesis in mouse L1210 cells; type: functional; conditions: read-out: ID50 (the source's name)
[13] = test system: P388; assay: Antitumor activity against mouse P388 cells xenografted in mouse assessed as increase in life span at 50 mg/kg/day, ip after 9 days; type: functional; conditions: route intraperitoneal
[14] = test system: P388; assay: Antitumor activity against mouse P388 cells xenografted in mouse assessed as increase in life span at 5 mg/kg/day, ip after 9 days; type: functional; conditions: route intraperitoneal
[15] = test system: P388; assay: Antitumor activity against mouse P388 cells xenografted in mouse assessed as increase in life span at 25 mg/kg/day, ip after 9 days; type: functional; conditions: route intraperitoneal
[16] = test system: P388; assay: Antitumor activity against mouse P388 cells xenografted in mouse assessed as increase in life span at 8 mg/kg/day, ip after 9 days; type: functional; conditions: route intraperitoneal
[17] = test system: P388; assay: Antitumor activity against mouse P388 cells xenografted in mouse assessed as increase in life span at 6.3 mg/kg/day, ip after 9 days; type: functional; conditions: route intraperitoneal
[18] = test system: B16; assay: Antitumor activity against mouse B16 cells xenografted in mouse assessed as increase in life span at 2 to 5 mg/kg/day, ip after 9 days; type: functional; conditions: route intraperitoneal
[19] = test system: L1210; assay: Antitumor activity against mouse L1210 cells xenografted in mouse assessed as increase in life span at 2.5 mg/kg/day, ip after 9 days; type: functional; conditions: route intraperitoneal
[20] = test system: P388; assay: Antitumor activity against mouse P388 cells xenografted in mouse assessed as increase in life span at 3.1 mg/kg/day, ip after 9 days; type: functional; conditions: route intraperitoneal
[21] = test system: B16; assay: Antitumor activity against mouse B16 cells xenografted in mouse assessed as increase in life span at 10 mg/kg/day, ip after 9 days; type: functional; conditions: route intraperitoneal
[22] = test system: P388; assay: Antitumor activity against mouse P388 cells xenografted in mouse assessed as increase in life span at 70 mg/kg/day, ip after 9 days; type: functional; conditions: route intraperitoneal
[23] = test system: L1210; assay: Antitumor activity against mouse L1210 cells xenografted in mouse assessed as increase in life span at 20 mg/kg/day, ip after 9 days; type: functional; conditions: route intraperitoneal
[24] = test system: P388; assay: Antitumor activity against mouse P388 cells xenografted in mouse assessed as increase in life span at 20 mg/kg/day, ip after 9 days; type: functional; conditions: route intraperitoneal
[25] = test system: B16; assay: Antitumor activity against mouse B16 cells xenografted in mouse assessed as increase in life span at 12 mg/kg/day, ip after 9 days; type: functional; conditions: route intraperitoneal
[26] = test system: P388; assay: Antitumor activity against mouse P388 cells xenografted in mouse assessed as increase in life span at 6.5 mg/kg/day, ip after 9 days; type: functional; conditions: route intraperitoneal
[27] = L1210, read-out: ID50 (the source's name)

## COC(=O)[C@@H]1c2cc3c(c(O)c2[C@@H](OC(C)=O)C[C@]1(C)O)C(=O)c1c(O)cc2c(c1C3=O)O[C@@H]1O[C@@]2(C)[C@H](O)[C@@H](N(C)C)[C@@H]1O
[1]
  Activity: 87%

## CN(C)[C@H]1[C@H](O)[C@@H]2Oc3c(cc(O)c4c3C(=O)c3cc5c(c(O)c3C4=O)CC[C@](C)(O)C5)[C@@](C)(O2)[C@@H]1O
[2]
  ID95: 1760 nM
[2]; [27]
  IC50: 940 nM
[3]
  Activity: 21%

## CCO[C@H]1C[C@@](C)(O)[C@H](C(=O)OC)c2cc3c(c(O)c21)C(=O)c1c(O)cc2c(c1C3=O)O[C@@H]1O[C@@]2(C)[C@H](O)[C@@H](N(C)C)[C@@H]1O
[2]; L1210, read-out: ID50
  IC50: 0.15 µg/mL
[4]
  Activity: 70%

## CC(C)O[C@H]1C[C@@](C)(O)Cc2cc3c(c(O)c21)C(=O)c1c(O)cc2c(c1C3=O)O[C@@H]1O[C@@]2(C)[C@H](O)[C@@H](N(C)C)[C@@H]1O
[5]
  Activity: 20%

## COC(=O)[C@@H]1c2cc3c(c(O)c2[C@@H](O[C@@H]2O[C@@H](C)[C@H](OC)[C@@](C)(OC)[C@H]2OC)C[C@]1(C)O)C(=O)c1c(O)cc2c(c1C3=O)O[C@@H]1O[C@@]2(C)[C@H](O)[C@@H](N(C)C)[C@@H]1O [NOGALAMYCIN]
[6]
  IC50: 3300 nM
[7]
  Activity: 71%
[8]
  Activity: inactive
[9]
  Activity: 49%
[2]
  ID95: 0.18 µg/mL
[2]; L1210, read-out: ID50
  IC50: 0.078 µg/mL
[10]
  Activity: 30%
[11]
  inhibition (INH): 99.9%
[12]
  IC50: 400 nM

## COC(=O)[C@@H]1c2cc3c(c(O)c2[C@@H](N(C)C)C[C@]1(C)O)C(=O)c1c(O)cc2c(c1C3=O)O[C@@H]1O[C@@]2(C)[C@H](O)[C@@H](N(C)C)[C@@H]1O
[13]
  Activity: 54%

## COC(=O)[C@@H]1c2cc3c(c(O)c2[C@@H](N=[N+]=[N-])C[C@]1(C)O)C(=O)c1c(O)cc2c(c1C3=O)O[C@@H]1O[C@@]2(C)[C@H](O)[C@@H](N(C)C)[C@@H]1O
[14]
  Activity: 33%

## CN[C@H]1C[C@](C)(O)[C@H](C(=O)OC)c2cc3c(c(O)c21)C(=O)c1c(O)cc2c(c1C3=O)O[C@@H]1O[C@@]2(C)[C@H](O)[C@@H](N(C)C)[C@@H]1O
[15]
  Activity: 58%

## COC(=O)[C@@H]1c2cc3c(c(O)c2[C@@H](SC)C[C@]1(C)O)C(=O)c1c(O)cc2c(c1C3=O)O[C@@H]1O[C@@]2(C)[C@H](O)[C@@H](N(C)C)[C@@H]1O
[16]
  Activity: 37%

## CCCO[C@H]1C[C@@](C)(O)Cc2cc3c(c(O)c21)C(=O)c1c(O)cc2c(c1C3=O)O[C@@H]1O[C@@]2(C)[C@H](O)[C@@H](N(C)C)[C@@H]1O
[17]
  Activity: 34%
[2]; L1210, read-out: ID50
  IC50: 0.1 µg/mL

## CCO[C@H]1C[C@](C)(O)[C@H](C(=O)OC)c2cc3c(c(O)c21)C(=O)c1c(O)cc2c(c1C3=O)O[C@@H]1O[C@@]2(C)[C@H](O)[C@@H](N(C)C)[C@@H]1O
[2]; L1210, read-out: ID50
  IC50: 0.16 µg/mL

## CO[C@H]1[C@H](O[C@H]2C[C@](C)(O)Cc3cc4c(c(O)c32)C(=O)c2c(O)cc3c(c2C4=O)O[C@@H]2O[C@@]3(C)[C@H](O)[C@@H](N(C)C)[C@@H]2O)O[C@@H](C)[C@H](OC)[C@@]1(C)OC [DISNOGAMYCIN]
[6]
  IC50: 3000 nM
[18]
  Activity: 61%
[2]
  ID95: 0.27 µg/mL
[2]; L1210, read-out: ID50
  IC50: 0.18 µg/mL
[14]
  Activity: 93%
[12]
  IC50: 500 nM
[19]
  Activity: 27%

## CCN[C@H]1C[C@](C)(O)[C@H](C(=O)OC)c2cc3c(c(O)c21)C(=O)c1c(O)cc2c(c1C3=O)O[C@@H]1O[C@@]2(C)[C@H](O)[C@@H](N(C)C)[C@@H]1O
[15]
  Activity: 55%

## COC(=O)[C@@H]1c2cc3c(c(O)c2CC[C@]1(C)O)C(=O)c1c(O)cc2c(c1C3=O)O[C@@H]1O[C@@]2(C)[C@H](O)[C@@H](N(C)C)[C@@H]1O
[13]
  Activity: 27%
[2]
  ID95: 1510 nM
[2]; [27]
  IC50: 580 nM

## CCCO[C@H]1C[C@](C)(O)[C@H](C(=O)OC)c2cc3c(c(O)c21)C(=O)c1c(O)cc2c(c1C3=O)O[C@@H]1O[C@@]2(C)[C@H](O)[C@@H](N(C)C)[C@@H]1O
[2]; L1210, read-out: ID50
  IC50: 0.16 µg/mL

## CCN(CC)[C@H]1C[C@](C)(O)[C@H](C(=O)OC)c2cc3c(c(O)c21)C(=O)c1c(O)cc2c(c1C3=O)O[C@@H]1O[C@@]2(C)[C@H](O)[C@@H](N(C)C)[C@@H]1O
[15]
  Activity: 38%

## CCCO[C@H]1C[C@](C)(O)Cc2cc3c(c(O)c21)C(=O)c1c(O)cc2c(c1C3=O)O[C@@H]1O[C@@]2(C)[C@H](O)[C@@H](N(C)C)[C@@H]1O
[2]; L1210, read-out: ID50
  IC50: 0.33 µg/mL
[20]
  Activity: 50%

## Cc1ccc2c(O)c3c(cc2c1)C(=O)c1c2c(cc(O)c1C3=O)[C@@]1(C)O[C@@H](O2)[C@@H](O)[C@H](N(C)C)[C@H]1O [NOGARENE]
[2]
  ID95: 370 nM
[2]; [27]
  IC50: 220 nM
[4]
  Activity: 17%

## COC(=O)[C@@H]1c2cc3c(c(O)c2[C@@H](OC)C[C@@]1(C)O)C(=O)c1c(O)cc2c(c1C3=O)O[C@@H]1O[C@@]2(C)[C@H](O)[C@@H](N(C)C)[C@@H]1O
[6]
  IC50: 7000 nM
[21]
  Activity: 35%
[15]
  Activity: 98%
[2]; L1210, read-out: ID50
  IC50: 0.13 µg/mL
[12]
  IC50: 7800 nM

## COC(=O)c1c(C)ccc2c(O)c3c(cc12)C(=O)c1c2c(cc(O)c1C3=O)[C@@]1(C)O[C@@H](O2)[C@@H](O)[C@H](N(C)C)[C@H]1O [NOGALARENE]
[22]
  Activity: 50%
[2]
  ID95: 580 nM
[2]; [27]
  IC50: 240 nM

## CO[C@H]1[C@H](O[C@H]2C[C@](C)(O)[C@H](C(=O)O)c3cc4c(c(O)c32)C(=O)c2c(O)cc3c(c2C4=O)O[C@@H]2O[C@@]3(C)[C@H](O)[C@@H](N(C)C)[C@@H]2O)O[C@@H](C)[C@H](OC)[C@@]1(C)OC [NOGALAMYCINIC ACID]
[23]
  Activity: 18%
[2]
  ID95: 1.94 µg/mL
[2]; L1210, read-out: ID50
  IC50: 1 µg/mL
[11]
  inhibition (INH): 86.7%
[24]
  Activity: 56%

## CCO[C@H]1C[C@](C)(O)Cc2cc3c(c(O)c21)C(=O)c1c(O)cc2c(c1C3=O)O[C@@H]1O[C@@]2(C)[C@H](O)[C@@H](N(C)C)[C@@H]1O
[6]
  IC50: 3200 nM
[2]; L1210, read-out: ID50
  IC50: 0.43 µg/mL
[25]
  Activity: 34%
[12]
  IC50: 800 nM

## CCCO[C@H]1C[C@@](C)(O)[C@H](C(=O)OC)c2cc3c(c(O)c21)C(=O)c1c(O)cc2c(c1C3=O)O[C@@H]1O[C@@]2(C)[C@H](O)[C@@H](N(C)C)[C@@H]1O
[2]; L1210, read-out: ID50
  IC50: 0.3 µg/mL

## CCO[C@H]1C[C@@](C)(O)Cc2cc3c(c(O)c21)C(=O)c1c(O)cc2c(c1C3=O)O[C@@H]1O[C@@]2(C)[C@H](O)[C@@H](N(C)C)[C@@H]1O
[6]
  IC50: 10600 nM
[2]; L1210, read-out: ID50
  IC50: 0.16 µg/mL
[25]
  Activity: 25%
[26]
  Activity: 63%
[12]
  IC50: 5200 nM
